Among the data in ChEMBL document CHEMBL1150635, “Cytotoxic pyrrolo- and furanoterpenoids from the sponge sarcotragus species” (2002) are EC50 values, retold here.

Format in all cases: functional
Conditions in all cases: read-out: ED50 (the source's name)

The test system of one experiment is SK-OV-3. As to the kind of experiment: Cytotoxicity against human SKOV3 cells.
A further experiment concerns SK-MEL-2. As to the kind of experiment: Cytotoxicity against human SK-MEL-2 cells.
A further experiment has as its system HCT-15. As to the kind of experiment: Cytotoxicity against human HCT15 cells.
The test system of the next experiment is A549. As to the kind of experiment: Cytotoxicity against human A549 cells.
The test system of the next experiment is XF498. Briefly: Cytotoxicity against human XF498 cells.

Structures are written as SMILES. Converted amounts (≈) assume the structure as drawn.

With `CCC(C)CN1CC=C(CCC/C(C)=C/C=C/[C@@H](C)CC/C=C(/C)C[C@H]2OC(=O)C(C)=C2O)C1=O` (stereo not given in full), the EC50 stood at 26.8 µg/mL (≈ 55.4 µM) in the experiment with SK-OV-3; 15.9 µg/mL (≈ 32.9 µM) in the experiment on SK-MEL-2; 22.3 µg/mL (≈ 46.1 µM) in the experiment on HCT-15; 27.1 µg/mL (≈ 56 µM) with A549; 25.2 µg/mL (≈ 52.1 µM) with XF498.
Regarding `COc1cccc2c1C(=O)c1c(O)c3c(c(O)c1C2=O)C[C@@](O)(C(=O)CO)C[C@@H]3O[C@H]1C[C@H](N)[C@H](O)[C@H](C)O1` [DOXORUBICIN], the EC50 was determined as 0.16 µg/mL (≈ 0.294 µM) in the experiment on SK-OV-3; 0.02 µg/mL (≈ 0.0368 µM) in the experiment on SK-MEL-2; 0.06 µg/mL (≈ 0.11 µM) with HCT-15; 0.02 µg/mL (≈ 0.0368 µM) with A549; 0.13 µg/mL (≈ 0.239 µM) with XF498.
With `CC1=C(O)[C@@H](C/C(C)=C\CC[C@H](C)/C=C/C=C(\C)CCCc2ccoc2)OC1=O` [EPI-SARCOTIN A], the EC50 with SK-OV-3 worked out at 9.6 µg/mL (≈ 24.1 µM); in the experiment with SK-MEL-2, 5.6 µg/mL (≈ 14.1 µM); in the experiment on HCT-15, 6.5 µg/mL (≈ 16.3 µM); with A549, 12.3 µg/mL (≈ 30.9 µM); with XF498 it was 9.8 µg/mL (≈ 24.6 µM).
Take `CC1=C(O)[C@@H](C/C(C)=C\CC[C@H](C)/C=C/C=C(\C)CCCC2=CCN(CCC(C)C)C2=O)OC1=O` [EPI-SARCOTRINE A]: the EC50 in the experiment with SK-OV-3 worked out at 4 µg/mL (≈ 8.27 µM); with SK-MEL-2, 3.4 µg/mL (≈ 7.03 µM); with HCT-15 it was 3.8 µg/mL (≈ 7.86 µM); in the experiment with A549 it was 4.3 µg/mL (≈ 8.89 µM); in the experiment on XF498, 3.9 µg/mL (≈ 8.06 µM).
With `CC1=C(O)[C@@H](C/C(C)=C\CC[C@H](C)/C=C/C=C(\C)CCCC2=CCN(CCc3ccccc3)C2=O)OC1=O` [EPI-SARCOTRINE B], the EC50 was determined as 13.1 µg/mL (≈ 25.3 µM) in the experiment with SK-OV-3; 4.8 µg/mL (≈ 9.27 µM) with SK-MEL-2; 5.4 µg/mL (≈ 10.4 µM) with HCT-15; 16.8 µg/mL (≈ 32.5 µM) with A549; 10.5 µg/mL (≈ 20.3 µM) with XF498.
`COC1C=C(CCC/C(C)=C/C=C/[C@@H](C)CC/C=C(/C)C[C@@H]2OC(=O)C(C)=C2O)C(=O)O1` (stereo not given in full) [SARCOTIN F]: the EC50 in the experiment on SK-OV-3 came out at 15.2 µg/mL (≈ 34.2 µM); with SK-MEL-2 it was 7.6 µg/mL (≈ 17.1 µM); in the experiment on HCT-15 it was 10.5 µg/mL (≈ 23.6 µM); in the experiment on A549 it was 24.1 µg/mL (≈ 54.2 µM); in the experiment on XF498 it was 20.1 µg/mL (≈ 45.2 µM).
Regarding `CO[C@]1(Cc2ccoc2)C=C(CC/C=C(\C)CCC[C@@H](C)/C=C2\OC(=O)C(C)=C2O)C(=O)O1` [SARCOTIN G], the EC50 is 10 µg/mL (≈ 21.9 µM) in the experiment on SK-OV-3; 5.1 µg/mL (≈ 11.2 µM) in the experiment with SK-MEL-2; 7.3 µg/mL (≈ 16 µM) in the experiment with HCT-15; 9.1 µg/mL (≈ 19.9 µM) in the experiment on A549; 7.6 µg/mL (≈ 16.6 µM) with XF498.
With `CO[C@]1(Cc2ccoc2)C=C(CCC/C(C)=C\CC[C@@H](C)/C=C2\OC(=O)C(C)=C2O)C(=O)O1` [SARCOTIN H], the EC50 is 6.8 µg/mL (≈ 14.9 µM) in the experiment on SK-OV-3; 5.9 µg/mL (≈ 12.9 µM) in the experiment with SK-MEL-2; 6.1 µg/mL (≈ 13.4 µM) in the experiment on HCT-15; 6.7 µg/mL (≈ 14.7 µM) in the experiment with A549; 6.3 µg/mL (≈ 13.8 µM) in the experiment on XF498.
For the compound `C/C(=C/CC[C@@H](C)/C=C/C=C(\C)CCCc1ccoc1)CC(O)C(=O)[O-].[Na+]` (stereo not given in full) [SARCOTIN I], the EC50 turned out to be 23.3 µg/mL in the experiment with SK-OV-3; 25.7 µg/mL in the experiment with SK-MEL-2; 23.7 µg/mL in the experiment with HCT-15; 24.8 µg/mL with A549; 25.9 µg/mL with XF498.
As for `COC(=O)C(O)C/C(C)=C\CC[C@H](C)/C=C/C=C(\C)CCCc1ccoc1` (stereo not given in full) [SARCOTIN J], the EC50 with SK-OV-3 stood at 10 µg/mL (≈ 26.7 µM); with SK-MEL-2 it was 7.8 µg/mL (≈ 20.8 µM); in the experiment on HCT-15 it was 8.7 µg/mL (≈ 23.2 µM); with A549 it was 18.1 µg/mL (≈ 48.3 µM); in the experiment with XF498, 24.3 µg/mL (≈ 64.9 µM).
On the same counts, the results for `COC(/C=C/[C@@H](C)CC/C=C(/C)C[C@@H]1OC(=O)C(C)=C1O)C(C)(O)CCCc1ccoc1` (stereo not given in full) [SARCOTIN M] are 8.4 µg/mL (≈ 18.8 µM), 9.9 µg/mL (≈ 22.2 µM), 10.1 µg/mL (≈ 22.6 µM), 9 µg/mL (≈ 20.2 µM) and 11.3 µg/mL (≈ 25.3 µM).
As to `CC1=C(O)[C@H](C/C(C)=C\CC[C@H](C)/C=C/C=C(\C)CCCC2=CCN(CCC(C)C)C2=O)OC1=O` [SARCOTRINE A], the EC50 in the experiment with SK-OV-3 amounted to 5.3 µg/mL (≈ 11 µM); with SK-MEL-2, 4.1 µg/mL (≈ 8.48 µM); in the experiment on HCT-15, 5 µg/mL (≈ 10.3 µM); in the experiment with A549, 15.1 µg/mL (≈ 31.2 µM); in the experiment on XF498, 5.5 µg/mL (≈ 11.4 µM).
On to `CC1=C(O)[C@H](C/C(C)=C\CC[C@H](C)/C=C/C=C(\C)CCCC2=CCN(CCc3ccccc3)C2=O)OC1=O` [SARCOTRINE B], for which the EC50 in the experiment with SK-OV-3 stood at 6.7 µg/mL (≈ 12.9 µM); with SK-MEL-2, 4.3 µg/mL (≈ 8.31 µM); with HCT-15 it was 4.9 µg/mL (≈ 9.46 µM); in the experiment on A549 it was 6.3 µg/mL (≈ 12.2 µM); in the experiment on XF498 it was 5.2 µg/mL (≈ 10 µM).
Take `CCC(C)CN1CC=C(CCC/C(C)=C/C=C/[C@@H](C)CC/C=C(/C)C[C@@H]2OC(=O)C(C)=C2O)C1=O` (stereo not given in full) [SARCOTRINE C]: the EC50 in the experiment on SK-OV-3 turned out to be 6.9 µg/mL (≈ 14.3 µM); in the experiment on SK-MEL-2, 3.8 µg/mL (≈ 7.86 µM); in the experiment with HCT-15, 5.3 µg/mL (≈ 11 µM); in the experiment on A549, 19 µg/mL (≈ 39.3 µM); in the experiment on XF498 it was 5.4 µg/mL (≈ 11.2 µM).
As to `CC1=C(O)[C@H](C/C(C)=C\CC[C@H](C)/C=C/C=C(\C)CCCC2=CC(=O)N(CCC(C)C)C2)OC1=O` [SARCOTRINE D], the EC50 in the experiment on SK-OV-3 is 25.9 µg/mL (≈ 53.5 µM); with SK-MEL-2 it was 13.2 µg/mL (≈ 27.3 µM); with HCT-15, 21.6 µg/mL (≈ 44.7 µM); in the experiment on A549, over 30 µg/mL; in the experiment with XF498, over 30 µg/mL.
